GI50 and TGI data for eight molecules are collected here from PubChem BioAssay (NCI).

Test systems include UACC-62 melanoma; UO-31 renal; LOX IMVI melanoma; SF-539 CNS; OVCAR-4 ovarian; T-47D breast; SF-295 CNS; OVCAR-8 ovarian; DU-145 prostate; SK-MEL-2 melanoma.
What all share (test): NCI tumour cell line growth inhibition, 48 h

The structures appear in SMILES notation.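 1) Cells in 96-well plates. 2) Compound, 48 h, 5 concentrations. 3) Linear interpolation between surrounding doses. 4) Unreached endpoint = highest concentration. At the GI50, growth is halved. TGI: total growth inhibition.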 Some results are limits rather than exact numbers.

For `COc1cc2c(c(OC)c1OC)-c1ccc(NNC(=S)N(Cc3cccc(C[N+](Cc4cccc(CNC56CC7CC(CC(C7)C5)C6)c4)(Cc4cccc(CNC56CC7CC(CC(C7)C5)C6)c4)Cc4cccc(CN(C(=S)NNc5ccc6c(cc5=O)[C@@H](NC(C)=O)CCc5cc(OC)c(OC)c(OC)c5-6)C56CC7CC(CC(C7)C5)C6)c4)c3)C34CC5CC(CC(C5)C3)C4)c(=O)cc1[C@@H](NC(C)=O)CC2` (some centres undefined), the GI50 with UACC-62 melanoma is 1.61 µM; in the experiment on UO-31 renal, 2.16 µM; with LOX IMVI melanoma, 0.873 µM; in the experiment on SF-539 CNS, 1.14 µM; in the experiment with OVCAR-4 ovarian, 2.17 µM; in the experiment with T-47D breast, 1.83 µM. In addition, the GI50 in the experiment with SF-295 CNS is 1.53 µM; in the experiment on OVCAR-8 ovarian, 2.03 µM; in the experiment on DU-145 prostate, 2.46 µM; in the experiment with SK-MEL-2 melanoma, 0.861 µM. In addition, the TGI worked out at 6.38 µM in the experiment on UACC-62 melanoma; 7.2 µM in the experiment on UO-31 renal; 2.86 µM in the experiment on LOX IMVI melanoma; 4.3 µM with SF-539 CNS; 8.94 µM in the experiment on OVCAR-4 ovarian; 9.4 µM with T-47D breast. Besides, the TGI in the experiment with SF-295 CNS is 5.92 µM; in the experiment on OVCAR-8 ovarian, 7.49 µM; in the experiment on DU-145 prostate, 7.1 µM; in the experiment on SK-MEL-2 melanoma, 2.76 µM.
Take `NC(=O)C(Br)CBr` (centres undefined): the GI50 in the experiment on UACC-62 melanoma was 2.14 µM; in the experiment with UO-31 renal, 2.55 µM; in the experiment with LOX IMVI melanoma, 1.98 µM; in the experiment on SF-539 CNS it was 3.01 µM; with OVCAR-4 ovarian, 1.25 µM; with T-47D breast it was 1.76 µM. The GI50 with SF-295 CNS is 14.7 µM; in the experiment on OVCAR-8 ovarian, 1.8 µM; with DU-145 prostate it was 2.26 µM; in the experiment with SK-MEL-2 melanoma, 2.26 µM. Further, the TGI in the experiment with UACC-62 melanoma was 6.07 µM; in the experiment with UO-31 renal, 12.7 µM; in the experiment on LOX IMVI melanoma it was 5.93 µM; with SF-539 CNS, 10.3 µM; in the experiment on OVCAR-4 ovarian, 2.55 µM; with T-47D breast, 6.4 µM. For the same molecule, the TGI with SF-295 CNS was 35.2 µM; in the experiment on OVCAR-8 ovarian, 4.44 µM; in the experiment with DU-145 prostate, 5.72 µM.
With `C[C@]12CC/C(=N\N)C[C@@H]1CC[C@@H]1[C@@H]2CC[C@]2(C)/C(=N/N)CC[C@@H]12`, the GI50 with UACC-62 melanoma was more than 100 µM; with UO-31 renal, 51 µM; in the experiment with LOX IMVI melanoma, more than 100 µM; with SF-539 CNS, more than 100 µM; in the experiment on OVCAR-4 ovarian, more than 100 µM; in the experiment with T-47D breast, more than 100 µM. Also, the GI50 in the experiment on SF-295 CNS, in the experiment with OVCAR-8 ovarian, with DU-145 prostate and with SK-MEL-2 melanoma was more than 100 µM throughout. The TGI with UACC-62 melanoma, in the experiment on UO-31 renal, with LOX IMVI melanoma, in the experiment with SF-539 CNS, with OVCAR-4 ovarian and with T-47D breast was more than 100 µM each time. Also, the TGI with SF-295 CNS, with OVCAR-8 ovarian, in the experiment on DU-145 prostate and in the experiment with SK-MEL-2 melanoma was more than 100 µM throughout.
In the case of `C=C1C(=O)O[C@H]2[C@H]1CC/C(CNS(=O)(=O)c1ccc3ccccc3c1)=C\CC[C@@]1(C)O[C@@H]21`, the GI50 with UACC-62 melanoma was 1.64 µM; with UO-31 renal, 1.34 µM; in the experiment with LOX IMVI melanoma it was 1.43 µM; in the experiment with SF-539 CNS it was 1.73 µM; in the experiment with OVCAR-4 ovarian, 4.2 µM; in the experiment with T-47D breast it was 1.92 µM. Further, the GI50 in the experiment on SF-295 CNS is 7.49 µM; with OVCAR-8 ovarian, 3.36 µM; in the experiment with DU-145 prostate, 1.34 µM; in the experiment with SK-MEL-2 melanoma, 2.13 µM. The TGI in the experiment on UACC-62 melanoma is 4.01 µM; in the experiment with UO-31 renal it was 2.78 µM; with LOX IMVI melanoma it was 2.77 µM; in the experiment on SF-539 CNS it was 3.56 µM; in the experiment with OVCAR-4 ovarian it was 18.7 µM; in the experiment with T-47D breast, 4.64 µM. In addition, the TGI amounted to 20.9 µM with SF-295 CNS, 12.6 µM with OVCAR-8 ovarian, 3.56 µM with DU-145 prostate and 5.45 µM in the experiment with SK-MEL-2 melanoma.
In the case of `COc1ccc(Nc2ccnc(NCCNc3ccnc4cc(Cl)ccc34)n2)cc1`, the GI50 in the experiment on UACC-62 melanoma is 1.8 µM; in the experiment with UO-31 renal, 1.5 µM; in the experiment on LOX IMVI melanoma, 1.44 µM; in the experiment with SF-539 CNS, 1.59 µM; with OVCAR-4 ovarian, 1.45 µM; in the experiment on T-47D breast it was 1.61 µM. Moreover, the GI50 is 1.03 µM in the experiment on SF-295 CNS, 3.54 µM in the experiment on OVCAR-8 ovarian, 5.03 µM with DU-145 prostate and 2.25 µM in the experiment with SK-MEL-2 melanoma. Further, the TGI in the experiment with UACC-62 melanoma is 3.62 µM; in the experiment with UO-31 renal it was 3.7 µM; with LOX IMVI melanoma, 2.96 µM; with SF-539 CNS, 3.2 µM; with OVCAR-4 ovarian, 13.8 µM; in the experiment on T-47D breast, 5.72 µM. In addition, the TGI with SF-295 CNS was 2.78 µM; in the experiment on OVCAR-8 ovarian, 17.3 µM; with DU-145 prostate it was 17.6 µM; in the experiment with SK-MEL-2 melanoma, 4.11 µM.
As to `N#Cc1cccc(C(=O)c2cnn(-c3ccc(F)cc3)c2N)c1`, the GI50 in the experiment on UACC-62 melanoma, in the experiment with UO-31 renal, in the experiment with LOX IMVI melanoma, with SF-539 CNS, with OVCAR-4 ovarian and with T-47D breast was more than 25 µM in each case. The GI50 in the experiment on SF-295 CNS is more than 20.1 µM; in the experiment on OVCAR-8 ovarian, more than 25 µM; in the experiment on DU-145 prostate, more than 25 µM; in the experiment with SK-MEL-2 melanoma, 24.4 µM. Besides, the TGI in the experiment on UACC-62 melanoma, in the experiment on UO-31 renal, in the experiment with LOX IMVI melanoma, in the experiment on SF-539 CNS, with OVCAR-4 ovarian and with T-47D breast was more than 25 µM in each case. The TGI in the experiment on SF-295 CNS, with OVCAR-8 ovarian, in the experiment with DU-145 prostate and in the experiment with SK-MEL-2 melanoma was more than 25 µM in each case.
On to `C[N+](C)([O-])CCCNc1c2ccccc2nc2cccc([N+](=O)[O-])c12`, for which the TGI was determined as 0.491 µM in the experiment on UACC-62 melanoma; 4.34 µM in the experiment with UO-31 renal; 6.59 µM in the experiment on LOX IMVI melanoma; 3.88 µM in the experiment with SF-539 CNS; 3.16 µM in the experiment with OVCAR-4 ovarian; 3.62 µM with T-47D breast. Also, the TGI in the experiment on SF-295 CNS was 15 µM; in the experiment on OVCAR-8 ovarian it was 20.7 µM; with DU-145 prostate, 1.49 µM; in the experiment with SK-MEL-2 melanoma, 0.421 µM.
For `O=c1[nH]cnc2c1nnn2C1OC(CO)C(O)C1O` (centres undefined), the GI50 is 4.65 µM with UACC-62 melanoma; 2.75 µM with UO-31 renal; 0.779 µM in the experiment with LOX IMVI melanoma; 4.06 µM in the experiment on SF-539 CNS; 0.416 µM with OVCAR-4 ovarian; 0.736 µM in the experiment with T-47D breast. Also, the GI50 was 1.71 µM in the experiment with SF-295 CNS, 0.683 µM in the experiment on OVCAR-8 ovarian, 0.548 µM in the experiment on DU-145 prostate and 12.3 µM in the experiment on SK-MEL-2 melanoma. In addition, the TGI in the experiment on UACC-62 melanoma is 42.8 µM; with UO-31 renal, more than 100 µM; with LOX IMVI melanoma, more than 100 µM; in the experiment with SF-539 CNS, 63.8 µM; in the experiment on OVCAR-4 ovarian, 37.6 µM; in the experiment on T-47D breast it was more than 100 µM. For the same molecule, the TGI with SF-295 CNS is more than 65.7 µM; with OVCAR-8 ovarian, more than 100 µM; with DU-145 prostate it was 14 µM; in the experiment with SK-MEL-2 melanoma, more than 100 µM.
